Results on one molecule are retold here after patent publication US10927350B2, “Methods for generating stem cell-derived beta cells and uses thereof” (President and Fellows of Harvard College, priority 2014, dated 2021).

The test system of this assay is endocrine progenitor cells directed to differentiate into SC-β cells. Put plainly: Stimulation index (glucose stimulated insulin secretion) of SC-β cells generated from endocrine progenitor cells in the presence of a JNK inhibitor. In kind it is cell-based, human. To be noted: Stimulation index=[insulin@20 mM glucose]/[insulin@2 mM glucose]; Relative Stim Index=Stim Index/Stim Index of Control; versus SC-β cells generated in the absence of the JNK inhibitor; inhibitor added to Step 6 (FIG. 1, FIG. 2C). On the procedure: Stimulation index=[insulin@20 mM glucose]/[insulin@2 mM glucose]. Relative Stim Index=Stim Index/Stim Index of Control.
FIG. 2C is a schematic illustrating an exemplary method for generating SC-β cells by adding a JNK inhibitor to Step 6 of the exemplary protocol shown in FIG. 2B.
The methods of the present invention contemplate contacting cells (e.g., endocrine progenitor cells or precursors thereof) with effective amounts of one or more agents that decrease the level and/or activity of JNK. An “effective amount” of an agent (or composition containing such agent) refers to the amount sufficient to achieve a desired effect, e.g., when delivered to a cell or subject according to a selected administration form, route, and/or schedule. As will be appreciated by those of ordinary skill in this art, the absolute amount of a particular agent or composition that is effective may vary depending on such factors as the desired biological or pharmacological endpoint, the agent to be delivered, the target tissue, etc. Those of ordinary skill in the art will further understand that an “effective amount” may be contacted with cells or administered in a single dose, or the desired effect may be achieved by use of multiple doses. An effective amount of a composition may be an amount sufficient to reduce the severity of or prevent one or more symptoms or signs of a disorder (e.g., diabetes). […]

For `O=C1c2ccccc2-c2n[nH]c3cccc1c23` [SP600125, Anthra[1,9-cd]pyrazol-6(2H)-on], the “Relative stimulation index of generated SC-β cells” value is listed as “greater stimulation index”.
